Data reported in patent US11103684B2, “Systems, devices, and methods for treating a pulmonary disorder with an agent” (Holaira, Inc., priority 2013, dated 2021).
≈ marks a conversion by molar mass, not a printed value. Structures can show the parent of a compound that is named as a salt. Where two headings read alike, the source gives them in different places.

Experiments:
physchem = settings: water
[1] = Solubility levels of various agents in water; settings: for Extent (of solubility): US Pharmacopea scale, part of solvent per part of solute; for Part H20/part solute / Solubility in Water: water; for Solubility in Water: from mg/L and MW
[2] = cited from earlier work

solubility (physchem; Solubility in Water (mol/L)) [mM] | Extent (of solubility) [1] | Part H20/part solute [1] | Solubility in Water [1] [mM] | Structure (SMILES) | further results
 |  |  |  | [N]=O [Nitric Oxide] | solubility (physchem): 2.85 mM (≈ 85.4 µg/mL)
18.6 (≈ 4390 µg/mL) |  |  |  | CCN(CC)CCNC(=O)c1ccc(N)cc1 [Procainamide] | 
55.7 (≈ 10700 µg/mL) |  |  |  | Cc1cccc(C)c1NC(=O)C(C)N (centres unmarked) [Tocainide] | 
 | very slightly soluble (1000 to 10000) | 6720 | 8.333 (≈ 2400 µg/mL) | CCCCN1CCCCC1C(=O)Nc1c(C)cccc1C (centres unmarked) [Bupivicaine] | 
 | insoluble (>10000) | 266388.8889 | 0.2102 (≈ 57.7 µg/mL) | CCCN1CCCC[C@H]1C(=O)Nc1c(C)cccc1C [Ropivacaine] | Solubility in Water [2]: 0.0576 mg/mL (≈ 210 µM)
 |  |  |  | CCCN1CCCC[C@H]1C(=O)Nc1c(C)cccc1C [Ropivacaine HCL] | Solubility in Water ([2]; HCL): 53.8 mg/mL; Extent (of solubility) ([1]; HCL): slightly soluble (100 to 1000); Part H20/part solute ([1]; HCL): 342.5; Solubility in Water ([1]; HCL): 163.5 mM
